Source: US20050119288A1, “Dosing schedule for a novel anticancer agent” (Pfizer Inc, priority 2003, published 2005)

Tests used:
[1] = tested on: p-erbB2 (the phosphorylated form of erbB2 receptor); experiment: p-erbB2 reduction in FRE/erbB2 tumors; type: in vivo, human
Description: An objective of the pre-clinical investigations was to determine whether the Cmax or area under the curve (AUC) of the test compound is critical for the anti-tumor efficacy. An additional goal was to establish a pharmacokinetics/pharmacodynamics (PK/PD) relationship in the FRE/erbB2 tumor model. The FRE/erbB2 is an engineered murine tumor model, which over-expresses human erbB2 with a trans-membrane mutation.

[2] = Pharmacokinetics in BT-474 tumor-bearing mice; type: in vivo; details: for Cave0-4 h: PO, day 22; for AUC(0-t) / Cmax: female, athymic, mouse, blood, po; for Cmax: day 22, read-out: Cmax 0.5 h
Experimental: Exponentially growing BT-474 cells (RPMI 1640 with 10 mM HEPES, 10% FBS, and pen/strep [Gibco]) were harvested and inoculated SC (5 million cells/animal) into female athymic mice. Trochar pieces of BT-474 tumors were then implanted into the right flank of animals. BT-474 tumor bearing mice (50-320 mm^3 in size, N=40) were randomized in 7 groups consisting 5-6 animals each. Animals were treated with vehicle (PO, BID) or the test compound (PO, QD or BID) as described in Table 4. The tumor measurements and body weight changes were obtained on days 1, 6, 11, 15 and 22. Tumor volume was calculated by the following formula: Tumor volume (mm^3)═(W×W)/2×L (L=length & W=width). Blood samples (˜50 μl) were isolated at 0.5, 1, 2, 4 and 8 hrs after dosing on day 22 for PK-analysis. Tumors were isolated at 0.5 hr post-dosing on day 22 for PD-analysis by ELISA.

[3] = target: erbB2 receptor autophosphorylation (Homo sapiens, UniProt P04626); experiment: p-erbB2 reduction in MDA-MB-453 tumors by ELISA; type: in vivo
Chain of erbB2 receptor autophosphorylation (P04626 23-1255): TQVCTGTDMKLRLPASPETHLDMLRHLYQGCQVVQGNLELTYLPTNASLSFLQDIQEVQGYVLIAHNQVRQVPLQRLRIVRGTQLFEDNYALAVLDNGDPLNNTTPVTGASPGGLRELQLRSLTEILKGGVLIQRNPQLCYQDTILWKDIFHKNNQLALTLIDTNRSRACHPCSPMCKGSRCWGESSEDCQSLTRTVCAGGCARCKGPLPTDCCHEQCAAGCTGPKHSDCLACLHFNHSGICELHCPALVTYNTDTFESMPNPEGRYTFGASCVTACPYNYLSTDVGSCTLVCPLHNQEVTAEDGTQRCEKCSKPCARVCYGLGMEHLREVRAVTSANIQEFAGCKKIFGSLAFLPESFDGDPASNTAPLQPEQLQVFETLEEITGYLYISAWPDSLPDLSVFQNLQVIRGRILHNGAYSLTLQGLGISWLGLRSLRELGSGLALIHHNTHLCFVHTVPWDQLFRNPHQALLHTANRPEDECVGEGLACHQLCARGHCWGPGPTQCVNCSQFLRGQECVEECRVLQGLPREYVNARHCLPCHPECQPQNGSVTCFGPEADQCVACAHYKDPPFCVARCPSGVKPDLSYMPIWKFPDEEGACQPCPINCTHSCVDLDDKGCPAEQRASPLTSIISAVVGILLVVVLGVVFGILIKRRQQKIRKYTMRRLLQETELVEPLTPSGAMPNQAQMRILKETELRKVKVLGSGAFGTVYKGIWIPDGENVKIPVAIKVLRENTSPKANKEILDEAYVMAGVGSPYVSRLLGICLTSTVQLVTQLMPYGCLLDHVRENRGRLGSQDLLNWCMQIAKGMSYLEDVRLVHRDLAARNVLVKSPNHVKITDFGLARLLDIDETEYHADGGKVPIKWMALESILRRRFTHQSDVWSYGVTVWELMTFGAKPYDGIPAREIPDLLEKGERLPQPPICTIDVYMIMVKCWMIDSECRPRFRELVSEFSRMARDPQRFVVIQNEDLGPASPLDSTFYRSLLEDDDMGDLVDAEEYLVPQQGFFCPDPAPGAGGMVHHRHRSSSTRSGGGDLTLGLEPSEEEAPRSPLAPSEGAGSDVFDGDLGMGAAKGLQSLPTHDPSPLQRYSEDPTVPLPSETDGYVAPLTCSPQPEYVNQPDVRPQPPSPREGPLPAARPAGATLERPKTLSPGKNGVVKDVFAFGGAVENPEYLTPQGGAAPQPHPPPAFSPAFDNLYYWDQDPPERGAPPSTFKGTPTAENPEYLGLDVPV
Experimental: (§1) Study Design: Exponentially growing MDA-MB-453 cells (DMEM/F12 with 10% FBS, and pen/strep [Gibco]) were harvested and inoculated SC (5 million cells/animal) into female athymic mice. MDA-MB-453 tumor bearing mice (˜100 mm^3 in size, N=64) were randomized in 8 groups consisting 8 animals each. Animals were treated with vehicle (PO, QD or BID) or the test compound (PO, QD or BID) as described in Table 6. The tumor measurements and body weight changes were obtained on days 1, 3, 7, 10, 14, 17, 21, 24, and 29. Tumor volume was calculated by the following formula: Tumor volume (mm^3)═(W×W)/2×L (L=length & W=width). Blood samples (˜50 μl) were isolated at 0.5, 1, 2, 4 and 8 hrs after dosing on day 29 for PK-analysis. Tumors were isolated at 0.5 hr post-dosing on day 29 for PD-analysis by ELISA.

[4] = Pharmacokinetics in MDA-MB-453 tumor-bearing mice; type: in vivo; details: day 29; for Cave0-4 h / AUC(0-t) / Cmax: PO; for AUC(0-t) / Cmax: female, athymic, mouse, blood, po; for AUC(0-t): read-out: AUC0-4 h; for Cmax: read-out: Cmax 0.5 h
Experimental: as §1

[5] = Plasma concentration in FRE/erbB2 tumor-bearing mice
Experimental: The test compound was either administered using tail vein infusion or orally.
A 1.15 mg/ml solution of the test compound was infused IV at 550 μl/hr for 2 minute ramped infusions followed by 50 μl/hr for 15 min or 4 hour daily infusions. (Projection was based on Cl of the test compound). Athymic female mice bearing FRE/erbB2 tumors (˜100 mm^3 in size) were treated with vehicle, the test compound orally or the test compound intravenously. […] The study was carried out for 7 days. Plasma and tumor samples were isolated for PK and PD analysis at the termination of study.

In the case of COCC(=O)NC/C=C/c1ccc2ncnc(Nc3ccc(Oc4ccc(C)nc4)c(C)c3)c2c1 [Test Compound, E-2-Methoxy-N-(3-{4-(3-methyl-4-(6-methyl-pyridin-3-yloxy)-phenylamino)-quinazolin-6-yl}-allyl)-acetamide], the “% p-erbB2 reduction” value ([1]; 1.4 mg/kg IV, QD, 15 min/day) is reported as 48%, the “% p-erbB2 reduction” value ([1]; 10.7 mg/kg IV, 4 hr/day) is reported as 53% and the “% p-erbB2 reduction” value ([1]; 25 mg/kg PO, QD, termination of 7 day study) is reported as 34%. The p-erbB2 reduction ([1]; span over the IV groups 15 min/day and 4 hr/day) was 48-53%, the Cave0-4 h ([2]; 15 mg/kg, BID) was 120 ng/mL and the Cave0-4 h ([2]; 30 mg/kg, BID, estimated based on the extrapolated concentration at 4 hr from 2 hr and 8 hr exposures) was 360 ng/mL. For the same molecule, the Cave0-4 h ([2]; 30 mg/kg, QD, estimated based on the extrapolated concentration at 4 hr from 2 hr and 8 hr exposures) was 320 ng/mL, the Cave0-4 h ([2]; 50 mg/kg, BID) was 1320 ng/mL and the Cave0-4 h ([2]; 50 mg/kg, QD, estimated based on the extrapolated concentration at 4 hr from 2 hr and 8 hr exposures) was 1060 ng/mL. It also gave an AUC(0-t) ([2]; 15 mg/kg, BID, day 22, read-out: AUC0-4 h) of 480 ng·h/mL, a Cmax ([2]; 15 mg/kg, BID) of 616 ng/mL and a Cmax ([2]; 15 mg/kg, QD) of 250 ng/mL. It also gave an AUC(0-t) ([2]; 30 mg/kg, BID, day 22, estimated based on the extrapolated concentration at 4 hr from 2 hr and 8 hr exposures, read-out: AUC0-4 h) of 1440 ng·h/mL, a Cmax ([2]; 30 mg/kg, BID) of 1570 ng/mL and an AUC(0-t) ([2]; 30 mg/kg, QD, day 22, estimated based on the extrapolated concentration at 4 hr from 2 hr and 8 hr exposures, read-out: AUC0-4 h) of 1280 ng·h/mL. It also gave a Cmax ([2]; 30 mg/kg, QD) of 1800 ng/mL, an AUC(0-t) ([2]; 50 mg/kg, BID, day 22, read-out: AUC0-4 h) of 5280 ng·h/mL and a Cmax ([2]; 50 mg/kg, BID) of 6170 ng/mL. For the same molecule, the AUC(0-t) ([2]; 50 mg/kg, QD, day 22, estimated based on the extrapolated concentration at 4 hr from 2 hr and 8 hr exposures, read-out: AUC0-4 h) was 4220 ng·h/mL, the Cmax ([2]; 50 mg/kg, QD) was 5890 ng/mL and the inhibition in vivo at 25 mg/kg ([3]; MDA-MB-453, po, 0.5 h, PO, BID 25 mg/kg (Total Daily Dose = 50 mg/kg), 0.5 hr post-dosing on day 29) was 69%. The inhibition in vivo at 50 mg/kg ([3]; MDA-MB-453, po, 0.5 h, PO, BID 50 mg/kg (Total Daily Dose = 100 mg/kg), 0.5 hr post-dosing on day 29) was 75%, the inhibition in vivo at 100 mg/kg ([3]; MDA-MB-453, po, 0.5 h, PO, BID 100 mg/kg (Total Daily Dose = 200 mg/kg), 0.5 hr post-dosing on day 29) was 79% and the inhibition in vivo at 50 mg/kg ([3]; MDA-MB-453, po, 0.5 h, PO, QD 50 mg/kg, 0.5 hr post-dosing on day 29) was 78%. For the same molecule, the inhibition in vivo at 100 mg/kg ([3]; MDA-MB-453, po, 0.5 h, PO, QD 100 mg/kg, 0.5 hr post-dosing on day 29) was 88%, the inhibition in vivo at 200 mg/kg ([3]; MDA-MB-453, po, 0.5 h, PO, QD 200 mg/kg, 0.5 hr post-dosing on day 29) was 92% and the “reduction of p-erbB2” value ([3]; span over QD (50-200 mg/kg) and BID (25-100 mg/kg) dosings) was 69-92%. For the same molecule, the Cave0-4 h ([4]; 25 mg/kg, BID) was 215 ng/mL, the Cave0-4 h ([4]; 50 mg/kg, BID) was 509 ng/mL and the Cave0-4 h ([4]; 50 mg/kg, QD) was 591 ng/mL. The Cave0-4 h ([4]; 100 mg/kg, BID) was 1710 ng/mL, the Cave0-4 h ([4]; 100 mg/kg, QD) was 3120 ng/mL and the Cave0-4 h ([4]; 200 mg/kg, QD) was 6510 ng/mL. For the same molecule, the “Cave0-4 h, 200 mg/kg QD group relative to 100 mg/kg BID group” value [4] was 3.8 fold, the “Cmax, 100 mg/kg QD group relative to 50 mg/kg QD and 50 mg/kg BID groups” value [4] was “approximately 4 fold” and the “Cmax, 200 mg/kg QD group relative to 100 mg/kg BID group” value [4] was 2.4 fold. It also gave an AUC(0-t) ([4]; 25 mg/kg, BID) of 857 ng·h/mL, a Cmax ([4]; 25 mg/kg, BID) of 952 ng/mL and an AUC(0-t) ([4]; 50 mg/kg, BID) of 2040 ng·h/mL. For the same molecule, the Cmax ([4]; 50 mg/kg, BID) was 2390 ng/mL, the AUC(0-t) ([4]; 50 mg/kg, QD) was 2360 ng·h/mL and the Cmax ([4]; 50 mg/kg, QD) was 2760 ng/mL. For the same molecule, the AUC(0-t) ([4]; 100 mg/kg, BID) was 6840 ng·h/mL, the Cmax ([4]; 100 mg/kg, BID) was 6870 ng/mL and the AUC(0-t) ([4]; 100 mg/kg, QD) was 12500 ng·h/mL. It also gave a Cmax ([4]; 100 mg/kg, QD) of 9770 ng/mL, an AUC(0-t) ([4]; 200 mg/kg, QD) of 26100 ng·h/mL and a Cmax ([4]; 200 mg/kg, QD) of 16700 ng/mL. For the same molecule, the “Plasma Concentration (Mean ± SE)” value ([5]; 10.7 mg/kg IV, 4 hr/day) was 473 ± 141 ng/mL, the “Plasma Concentration (Mean ± SE)” value ([5]; 10.7 mg/kg IV, 4 hr/day, listed as test compound) was roughly 500 ng/mL and the “Plasma Concentration (Mean ± SE)” value ([5]; 25 mg/kg PO, QD, 0.5 h post-dosing on day 7) was 1460 ± 170 ng/mL.
